# Test results as given in PubChem BioAssay (NCI).
#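 Assay format: 96-well plates, 48-hour exposure. The concentration for full growth arrest is given as TGI.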
# Tests used:
# Assay in all cases: DTP human tumour cell line panel, 48 h
# [1] = tested on: SK-MEL-5 melanoma
# [2] = tested on: HCC-2998 colon
# [3] = tested on: IGROV1 ovarian
# [4] = tested on: CCRF-CEM leukemia
# [5] = tested on: U251 CNS
# [6] = tested on: XF 498 CNS
# [7] = tested on: ACHN renal
# [8] = tested on: HOP-62 NSCLC
# [9] = tested on: RXF 393 renal
# [10] = tested on: UACC-257 melanoma
# [11] = tested on: EKVX NSCLC
# [12] = tested on: NCI-H460 lung
# [13] = tested on: OVCAR-4 ovarian
# [14] = tested on: UACC-62 melanoma
# [15] = tested on: M14 melanoma
# [16] = tested on: SF-268 CNS
# [17] = tested on: M19-MEL melanoma
# [18] = tested on: HL-60(TB) leukemia
# [19] = tested on: SF-539 CNS
# [20] = tested on: DMS 273 small cell lung
# [21] = tested on: LXFL 529 NSCLC
# [22] = tested on: HCT-15 colon
# [23] = tested on: SW-620 colon
# [24] = tested on: SNB-78 CNS
# [25] = tested on: SNB-75 CNS
# [26] = tested on: HCT-116 colon
# [27] = tested on: OVCAR-3 ovarian
# [28] = tested on: SK-OV-3 ovarian
# [29] = tested on: COLO 205 colon
# [30] = tested on: SK-MEL-28 melanoma
# [31] = tested on: TK-10 renal
# [32] = tested on: SR leukemia
# [33] = tested on: UO-31 renal
# [34] = tested on: SN12C renal
# [35] = tested on: OVCAR-8 ovarian
# [36] = tested on: 786-0 renal
# [37] = tested on: SK-MEL-2 melanoma
# [38] = tested on: KM12 colon
# [39] = tested on: DMS 114 small cell lung
# [40] = tested on: HT29 colon
# [41] = tested on: K-562 leukemia
# [42] = tested on: RXF-631 renal
# [43] = tested on: LOX IMVI melanoma
# [44] = tested on: NCI-H522 lung
# [45] = tested on: HOP-18 NSCLC
# [46] = tested on: SF-295 CNS
# [47] = tested on: CAKI-1 renal
# [48] = tested on: MOLT-4 leukemia
# [49] = tested on: A549 NSCLC
# [50] = tested on: KM20L2 colon
# [51] = tested on: SNB-19 CNS
# [52] = tested on: OVCAR-5 ovarian
# [53] = tested on: NCI-H23 lung
# [54] = tested on: A498 renal
# [55] = tested on: MALME-3M melanoma
# [56] = tested on: NCI-H226 lung
# [57] = tested on: HOP-92 NSCLC
# [58] = tested on: DLD-1 colon
# [59] = tested on: RPMI-8226 leukemia
smiles,measurement,setting,value
CCOP(=O)(C/C(=N/NC(C)(C)C)C(=O)Nc1nc2ccc(C)cc2s1)OCC,TGI,[1],> 100 µM
same,TGI,[2],> 100 µM
same,TGI,[3],> 100 µM
same,TGI,[4],> 100 µM
same,TGI,[5],> 100 µM
same,TGI,[6],> 100 µM
same,TGI,[7],> 100 µM
same,TGI,[8],> 100 µM
same,TGI,[9],> 100 µM
same,TGI,[10],> 100 µM
same,TGI,[11],> 100 µM
same,TGI,[12],> 100 µM
same,TGI,[13],> 100 µM
same,TGI,[14],> 100 µM
same,TGI,[15],> 100 µM
same,TGI,[16],> 100 µM
same,TGI,[17],> 100 µM
same,TGI,[18],> 100 µM
same,TGI,[19],> 100 µM
same,TGI,[20],> 100 µM
same,TGI,[21],> 100 µM
same,TGI,[22],> 100 µM
same,TGI,[23],> 100 µM
same,TGI,[24],> 100 µM
same,TGI,[25],> 100 µM
same,TGI,[26],> 100 µM
same,TGI,[27],> 100 µM
same,TGI,[28],> 100 µM
same,TGI,[29],> 100 µM
same,TGI,[30],> 100 µM
same,TGI,[31],> 100 µM
same,TGI,[32],> 100 µM
same,TGI,[33],> 100 µM
same,TGI,[34],> 100 µM
same,TGI,[35],> 100 µM
same,TGI,[36],> 100 µM
same,TGI,[37],> 100 µM
same,TGI,[38],> 100 µM
same,TGI,[39],> 100 µM
same,TGI,[40],> 100 µM
same,TGI,[41],> 100 µM
same,TGI,[42],> 100 µM
same,TGI,[43],> 100 µM
same,TGI,[44],> 100 µM
same,TGI,[45],> 100 µM
same,TGI,[46],> 100 µM
same,TGI,[47],> 100 µM
same,TGI,[48],> 100 µM
same,TGI,[49],> 100 µM
same,TGI,[50],> 100 µM
same,TGI,[51],> 100 µM
same,TGI,[52],> 100 µM
same,TGI,[53],> 100 µM
same,TGI,[54],> 100 µM
same,TGI,[55],> 100 µM
same,TGI,[56],> 100 µM
[O-]c1c(-c2ccccc2)[se]c(-c2ccccc2)[n+]1-c1ccccc1,TGI,[1],26.5 µM
same,TGI,[2],19.3 µM
same,TGI,[3],13.6 µM
same,TGI,[4],31.8 µM
same,TGI,[9],8.45 µM
same,TGI,[10],25.3 µM
same,TGI,[11],35.4 µM
same,TGI,[12],38.7 µM
same,TGI,[13],5.95 µM
same,TGI,[14],27.5 µM
same,TGI,[15],17.6 µM
same,TGI,[16],21.6 µM
same,TGI,[57],38.1 µM
same,TGI,[17],21.3 µM
same,TGI,[18],5.51 µM
same,TGI,[19],4.35 µM
same,TGI,[20],37.1 µM
same,TGI,[21],27.8 µM
same,TGI,[22],31.2 µM
same,TGI,[23],34.2 µM
same,TGI,[24],14 µM
same,TGI,[25],22 µM
same,TGI,[26],11.4 µM
same,TGI,[27],21.9 µM
same,TGI,[58],4.48 µM
same,TGI,[28],39.2 µM
same,TGI,[29],31.3 µM
same,TGI,[30],22.7 µM
same,TGI,[31],20.6 µM
same,TGI,[33],9.84 µM
same,TGI,[34],17.9 µM
same,TGI,[35],13.7 µM
same,TGI,[36],22.5 µM
same,TGI,[59],> 100 µM
same,TGI,[37],19.8 µM
same,TGI,[38],23.1 µM
same,TGI,[39],18.7 µM
same,TGI,[40],52.9 µM
same,TGI,[41],> 100 µM
same,TGI,[42],29.9 µM
same,TGI,[43],30.5 µM
same,TGI,[44],8.42 µM
same,TGI,[45],25.6 µM
same,TGI,[46],12.1 µM
same,TGI,[47],34.1 µM
same,TGI,[48],92.9 µM
same,TGI,[49],35.9 µM
same,TGI,[51],20.2 µM
same,TGI,[53],29.7 µM
same,TGI,[54],26.7 µM
same,TGI,[55],29.3 µM
same,TGI,[56],9.11 µM
